{"source": "patent US5856359A", "about": "“Thyroxine/cyclodextrin complexes and pharmaceutical compositions containing the same” (Hexal AG, priority 1995, dated 1999)", "format_in_all_cases": "physicochemical", "key": {"[1]": {"assay": "Aqueous solubility of L-thyroxine free acid in the presence of γ-cyclodextrin", "experimental": "This poor solubility can be affected positively by employing γ-cyclodextrin. The effect of γ-cyclodextrin as to the aqueous solubility of thyroxine acid is shown by the results in the table below:\nAqueous solubility of thyroxine free acid in the\npresence of γ-cyclodextrin at 25° C. studied on two"}, "[2]": {"assay": "Physical stability of aqueous gels and solutions on storage", "experimental": "150 mg of a water swellable polymer (i.e. Klucel; Hercules Corp. USA) was added.\nThe aqueous gel containing γ-cyclodextrin solubilized thyroxine was prepared by mixing at room temperature 150 mg of Pionier NP37 (polyacrylicacid) with 10 ml of 10% aqueous γ-cyclodextrin solution containing 300 mg solubilized L-thyroxine-Na.\n10 ml of the aqueous Pionier NP37-thyroxine/γ-cyclodextrin formulation was stored in sealed polyethylene bags as well as in capped glass vials under normal laboratory conditions (22° C. exposed to day light) for two weeks and the turbidity of the samples was investigated."}, "[3]": {"assay": "Aqueous solubility of L-thyroxine sodium salt in the presence of cyclodextrins", "source_text": "Interaction between L-thyroxine sodium and cyclodextrins in presence of water.\nOne evidence of the interaction between L-thyroxine and cyclodextrins is that the cyclodextrins increase the aqueous solubility of the thyroxine as shown in Table 1.\nSolubility of L-thyroxine sodium salt in the presence of CDs (mg/ml)"}}, "note": "Counter-ions that a name gives are not always drawn.", "data": [{"compound": "N[C@@H](Cc1cc(I)c(Oc2cc(I)c(O)c(I)c2)c(I)c1)C(=O)O", "note": "[L-thyroxine free acid, 0-(4-hydroxy-3,5-diiodophenyl)-3,5-diiodotyrosine]", "values": [{"measurement": "enhancement of aqueous solubility of the acid form of thyroxine", "setting": "[1]; cyclodextrin 20% by weight", "value": "enhanced by about ten-fold"}, {"measurement": "solubility", "setting": "[1]; water with γ-cyclodextrin, γ-cyclodextrin 5 g/100 ml, 25° C., 1-st run, read-out: solubility of thyroxine free acid", "value": 400, "unit": "µg/mL"}, {"measurement": "solubility", "setting": "[1]; water with γ-cyclodextrin, γ-cyclodextrin 5 g/100 ml, 25° C., 2-nd run, read-out: solubility of thyroxine free acid", "value": 379, "unit": "µg/mL"}, {"measurement": "solubility", "setting": "[1]; water with γ-cyclodextrin, γ-cyclodextrin 10 g/100 ml, 25° C., 1-st run, read-out: solubility of thyroxine free acid", "value": 646, "unit": "µg/mL"}, {"measurement": "solubility", "setting": "[1]; water with γ-cyclodextrin, γ-cyclodextrin 10 g/100 ml, 25° C., 2-nd run, read-out: solubility of thyroxine free acid", "value": 652, "unit": "µg/mL"}, {"measurement": "solubility", "setting": "[1]; water with γ-cyclodextrin, γ-cyclodextrin 12 g/100 ml, 25° C., 1-st run, read-out: solubility of thyroxine free acid", "value": 765, "unit": "µg/mL"}, {"measurement": "solubility", "setting": "[1]; water with γ-cyclodextrin, γ-cyclodextrin 12 g/100 ml, 25° C., 2-nd run, read-out: solubility of thyroxine free acid", "value": 800, "unit": "µg/mL"}, {"measurement": "solubility", "setting": "[1]; water with γ-cyclodextrin, γ-cyclodextrin 15 g/100 ml, 25° C., 1-st run, read-out: solubility of thyroxine free acid", "value": 1020, "unit": "µg/mL"}, {"measurement": "solubility", "setting": "[1]; water with γ-cyclodextrin, γ-cyclodextrin 15 g/100 ml, 25° C., 2-nd run, read-out: solubility of thyroxine free acid", "value": 1000, "unit": "µg/mL"}, {"measurement": "solubility", "setting": "[1]; water with γ-cyclodextrin, γ-cyclodextrin 20 g/100 ml, 25° C., 1-st run, read-out: solubility of thyroxine free acid", "value": 1390, "unit": "µg/mL"}, {"measurement": "solubility", "setting": "[1]; water with γ-cyclodextrin, γ-cyclodextrin 20 g/100 ml, 25° C., 2-nd run, read-out: solubility of thyroxine free acid", "value": 1440, "unit": "µg/mL"}, {"measurement": "solubility", "setting": "[1]; water, without cyclodextrin, read-out: aqueous solubility of the free acid form of L-thyroxine", "value": "110 to 150", "unit": "µg/mL"}, {"measurement": "solubility", "setting": "[1]; water, γ-cyclodextrin 0 g/100 ml, 25° C., 1-st run, read-out: solubility of thyroxine free acid", "value": 110, "unit": "µg/mL"}, {"measurement": "solubility", "setting": "[1]; water, γ-cyclodextrin 0 g/100 ml, 25° C., 2-nd run, read-out: solubility of thyroxine free acid", "value": 150, "unit": "µg/mL"}]}, {"compound": "OC[C@H]1O[C@@H]2O[C@H]3[C@H](O)[C@@H](O)[C@@H](O[C@H]4[C@H](O)[C@@H](O)[C@@H](O[C@H]5[C@H](O)[C@@H](O)[C@@H](O[C@H]6[C@H](O)[C@@H](O)[C@@H](O[C@H]7[C@H](O)[C@@H](O)[C@@H](O[C@H]8[C@H](O)[C@@H](O)[C@@H](O[C@H]9[C@H](O)[C@@H](O)[C@@H](O[C@H]1[C@H](O)[C@H]2O)O[C@@H]9CO)O[C@@H]8CO)O[C@@H]7CO)O[C@@H]6CO)O[C@@H]5CO)O[C@@H]4CO)O[C@@H]3CO", "note": "[γ-cyclodextrin]", "values": [{"measurement": "precipitate formation", "setting": "[2]; aqueous γ-cyclodextrin solution without L-thyroxine-Na, after one week of storage", "value": "small amount of white precipitate formation"}, {"measurement": "haze / precipitate formation on storage", "setting": "[2]; clear aqueous γ-cyclodextrin solutions without L-thyroxine-Na, or L-thyroxine-Na/γ-cyclodextrin hydrogels", "value": "hazy within three days"}]}, {"compound": "thyroxine", "values": [{"measurement": "effect on the solubility of thyroxine", "setting": "[3]", "value": "practically no effect"}, {"measurement": "improvement of aqueous solubility of thyroxine", "setting": "[3]", "value": "did not significantly improve the aqueous solubility of thyroxine"}, {"measurement": "solubilizing potency of methylated-β-cyclodextrins for thyroxine versus γ-cyclodextrin", "setting": "[3]", "value": "less potent solubilizers of thyroxine, than the chemically non-modified γ-cyclodextrin"}]}, {"compound": "N[C@@H](Cc1cc(I)c(Oc2cc(I)c(O)c(I)c2)c(I)c1)C(=O)O", "note": "[L-thyroxine sodium salt, Levothyroxine sodium]", "values": [{"measurement": "solubility", "setting": "[3]; water with 2-hydroxypropylated-β-cyclodextrin, 2-hydroxypropylated-β-cyclodextrin 1.0%", "value": 1440, "unit": "µg/mL"}, {"measurement": "solubility", "setting": "[3]; water with 2-hydroxypropylated-β-cyclodextrin, 2-hydroxypropylated-β-cyclodextrin 5.0%", "value": 2900, "unit": "µg/mL"}, {"measurement": "solubility", "setting": "[3]; water with 2-hydroxypropylated-β-cyclodextrin, 2-hydroxypropylated-β-cyclodextrin 7.0%", "value": 2740, "unit": "µg/mL"}, {"measurement": "solubility", "setting": "[3]; water with 2-hydroxypropylated-β-cyclodextrin, 2-hydroxypropylated-β-cyclodextrin 10.0%", "value": 2770, "unit": "µg/mL"}, {"measurement": "solubility", "setting": "[3]; water with 2-hydroxypropylated-β-cyclodextrin, 2-hydroxypropylated-β-cyclodextrin 12.0%", "value": 3050, "unit": "µg/mL"}, {"measurement": "solubility", "setting": "[3]; water with 2-hydroxypropylated-β-cyclodextrin, 2-hydroxypropylated-β-cyclodextrin 15.0%", "value": 3140, "unit": "µg/mL"}, {"measurement": "solubility", "setting": "[3]; water with 2-hydroxypropylated-β-cyclodextrin, 2-hydroxypropylated-β-cyclodextrin 3.0%", "value": 3100, "unit": "µg/mL"}, {"measurement": "solubility", "setting": "[3]; water with heptakis-2,6-di-o-methyl-β-cyclodextrin, heptakis-2,6-di-O-methyl-β-cyclodextrin 1.0%", "value": 3160, "unit": "µg/mL"}, {"measurement": "solubility", "setting": "[3]; water with heptakis-2,6-di-o-methyl-β-cyclodextrin, heptakis-2,6-di-O-methyl-β-cyclodextrin 3.0%", "value": 5500, "unit": "µg/mL"}, {"measurement": "solubility", "setting": "[3]; water with randomly-methylated-β-cyclodextrin, randomly-methylated-β-cyclodextrin 1.0%", "value": 3700, "unit": "µg/mL"}, {"measurement": "solubility", "setting": "[3]; water with randomly-methylated-β-cyclodextrin, randomly-methylated-β-cyclodextrin 5.0%", "value": 8360, "unit": "µg/mL"}, {"measurement": "solubility", "setting": "[3]; water with randomly-methylated-β-cyclodextrin, randomly-methylated-β-cyclodextrin 7.0%", "value": 9330, "unit": "µg/mL"}, {"measurement": "solubility", "setting": "[3]; water with randomly-methylated-β-cyclodextrin, randomly-methylated-β-cyclodextrin 10.0%", "value": 10300, "unit": "µg/mL"}, {"measurement": "solubility", "setting": "[3]; water with randomly-methylated-β-cyclodextrin, randomly-methylated-β-cyclodextrin 12.0%", "value": 13300, "unit": "µg/mL"}, {"measurement": "solubility", "setting": "[3]; water with randomly-methylated-β-cyclodextrin, randomly-methylated-β-cyclodextrin 15.0%", "value": 16800, "unit": "µg/mL"}, {"measurement": "solubility", "setting": "[3]; water with randomly-methylated-β-cyclodextrin, randomly-methylated-β-cyclodextrin 3.0%", "value": 6150, "unit": "µg/mL"}, {"measurement": "solubility", "setting": "[3]; water with γ-cyclodextrin, γ-cyclodextrin 1.0%", "value": 5480, "unit": "µg/mL"}, {"measurement": "solubility", "setting": "[3]; water with γ-cyclodextrin, γ-cyclodextrin 5.0%", "value": 16900, "unit": "µg/mL"}, {"measurement": "solubility", "setting": "[3]; water with γ-cyclodextrin, γ-cyclodextrin 7.0%", "value": 26600, "unit": "µg/mL"}, {"measurement": "solubility", "setting": "[3]; water with γ-cyclodextrin, γ-cyclodextrin 12.0%", "value": 35100, "unit": "µg/mL"}, {"measurement": "solubility", "setting": "[3]; water with γ-cyclodextrin, γ-cyclodextrin 15.0%", "value": 44200, "unit": "µg/mL"}, {"measurement": "solubility", "setting": "[3]; water with γ-cyclodextrin, γ-cyclodextrin 3.0%", "value": 12100, "unit": "µg/mL"}, {"measurement": "solubility", "setting": "[3]; water, 1.0% maltosyl-β-cyclodextrin, Maltosyl-β-cyclodextrin 1.0%", "value": 2290, "unit": "µg/mL"}, {"measurement": "solubility", "setting": "[3]; water, 2-hydroxypropylated-β-cyclodextrin column, 0% (no CDs)", "value": 2000, "unit": "µg/mL"}, {"measurement": "solubility", "setting": "[3]; water, 3.0% maltosyl-β-cyclodextrin, Maltosyl-β-cyclodextrin 3.0%", "value": 2480, "unit": "µg/mL"}, {"measurement": "solubility", "setting": "[3]; water, 5.0% dimethyl-β-cyclodextrin, heptakis-2,6-di-O-methyl-β-cyclodextrin 5.0%", "value": 7000, "unit": "µg/mL"}, {"measurement": "solubility", "setting": "[3]; water, 5.0% maltosyl-β-cyclodextrin, Maltosyl-β-cyclodextrin 5.0%", "value": 2320, "unit": "µg/mL"}, {"measurement": "solubility", "setting": "[3]; water, 7.0% dimethyl-β-cyclodextrin, heptakis-2,6-di-O-methyl-β-cyclodextrin 7.0%", "value": 7620, "unit": "µg/mL"}, {"measurement": "solubility", "setting": "[3]; water, 7.0% maltosyl-β-cyclodextrin, Maltosyl-β-cyclodextrin 7.0%", "value": 2940, "unit": "µg/mL"}, {"measurement": "solubility", "setting": "[3]; water, 10.0% maltosyl-β-cyclodextrin, Maltosyl-β-cyclodextrin 10.0%", "value": 2730, "unit": "µg/mL"}, {"measurement": "solubility", "setting": "[3]; water, 12.0% dimethyl-β-cyclodextrin, heptakis-2,6-di-O-methyl-β-cyclodextrin 12.0%", "value": 12100, "unit": "µg/mL"}, {"measurement": "solubility", "setting": "[3]; water, 12.0% maltosyl-β-cyclodextrin, Maltosyl-β-cyclodextrin 12.0%", "value": 2800, "unit": "µg/mL"}, {"measurement": "solubility", "setting": "[3]; water, 15.0% dimethyl-β-cyclodextrin, heptakis-2,6-di-O-methyl-β-cyclodextrin 15.0%", "value": 14200, "unit": "µg/mL"}, {"measurement": "solubility", "setting": "[3]; water, 15.0% maltosyl-β-cyclodextrin, Maltosyl-β-cyclodextrin 15.0%", "value": 2680, "unit": "µg/mL"}, {"measurement": "solubility", "setting": "[3]; water, Maltosyl-β-cyclodextrin column, 0% (no CDs)", "value": 2000, "unit": "µg/mL"}, {"measurement": "solubility", "setting": "[3]; water, heptakis-2,6-di-O-methyl-β-cyclodextrin column, 0% (no CDs)", "value": 2000, "unit": "µg/mL"}, {"measurement": "solubility", "setting": "[3]; water, randomly-methylated-β-cyclodextrin column, 0% (no CDs)", "value": 2000, "unit": "µg/mL"}, {"measurement": "solubility", "setting": "[3]; water, γ-cyclodextrin column, 0% (no CDs)", "value": 2000, "unit": "µg/mL"}, {"measurement": "improvement of aqueous solubility of L-thyroxine sodium", "setting": "[3]; γ-cyclodextrin, among unsubstituted cyclodextrins", "value": "improve the aqueous solubility of L-thyroxine sodium most remarkably"}]}]}
